Reference: the NIST ThermoML archive (doi:10.1021/acs.jced.9b00509)

Experiment: mean ionic activity coefficient (dimensionless); mn = molality of the nth substance listed, in mol/kg
Conditions: 278.15 K, 100 kPa, Liquid, cell potential measurements

[Cl-].[Na+] [sodium chloride] + O
Conditions | mean ionic activity coefficient
m1 = 0.0101 | 0.895
m1 = 0.05 | 0.833
m1 = 0.0999 | 0.771
m1 = 0.1999 | 0.741
m1 = 0.5 | 0.642
m1 = 0.9999 | 0.619
m1 = 1.999 | 0.628
m1 = 2.999 | 0.654
